System: p62 puncta in HeLa cells
Assay: p62 puncta assay (immunocytochemistry and imaging, EVOS M7000 or Operetta CLS)
Assay type: cell-based
Conditions: Homo sapiens, fold change in p62 puncta levels relative to DMSO control, 24 hr
Protocol: HeLa cells were seeded in coated 96-well plates (10,000 cells) and allowed to adhere overnight. After 24 hours of treatment with either vehicle (DMSO) or test compounds, the media was discarded, and cells were rinsed with ice-cold 1×PBS before fixation by 4% formaldehyde or paraformaldehyde for 20 min. Cells were then washed with 1×PBS and permeabilized with 0.1% Triton X-100 in PBS for 20 min and blocked with Blocking Buffer in PBS for 1 hour. The cells were incubated thereafter for 1 hour with anti-p62 primary antibody in Blocking Buffer, followed by incubation with secondary antibody for 1 hour. DAPI dye was used to visualize nuclei of fixed cells. The blocking buffer used were 5% Fetal Bovine Serum (FBS, ThermoFIsher Scientific, 10270106) and Li-cor Intercept (PBS) Blocking Buffer (Li-cor, 927-70001). The primary antibody used was mouse anti-p62 primary antibody (Novus Biologicals, H00008878-MO1). The secondary antibodies used were goat anti-mouse Alexa Fluor Plus 488 secondary antibody (Invitrogen, GOXMS) and goat anti-mouse Alexa Fluor 488 secondary antibody (Invitrogen, A-11029). The DAPI dyes used were DAPI dye (Invitrogen, 62248) and DAPI dye (Invitrogen, D1306).
For the EVOS M7000 System, cells were imaged on the EVOS M7000 microscope using a 20× air objective (Nikon, N.A 0.45). DAPI and p62 channels were illuminated with LED light cubes using integrated hard-coated filter sets for DAPI (357/447 nm) and GFP (470/525 nm) respectively. Images were analysed for p62 puncta count on the Celeste 6.0 software.
For the Operetta CLS System, cells were imaged on the Operetta CLS using a 63× water objective on the DAPI and Alexa 488 channels. Images were analysed for p62 puncta count on the Harmony 5.1 software.
HeLa cells were treated with compounds for 24 hours to evaluate the effect of these compounds on p62 puncta activity. The resulting changes in levels of p62 puncta were assessed by imaging, either on the EVOS M7000 or Operetta CLS systems as described in experimental procedures. The fold change of p62 puncta levels induced by compound treatment relative to vehicle control (DMSO) was determined and summarized in Table 10.

SMILES	fold induction at 5 µM
C#CCCOCCNCc1ccc2cc(CCc3ccc(F)cc3)oc2c1 [compound 133]	> 2
CC(C)(C)OC(=O)NCCOCCOCCOCCNCc1ccc2cc(CCc3ccc(F)cc3)oc2c1 [compound 125]	> 2
C#CCCOCCOCCOCCNCc1ccc2cc(-c3ccccc3)oc2c1 [compound 94]	> 2
CC(C)(C)OC(=O)COCCCOCCNCc1ccc2cc(CCc3ccc(F)cc3)oc2c1 [compound 128]	> 2
COC(=O)CCOCCOCCOCCNCc1ccc2cc(CCc3ccc(F)cc3)oc2c1 [compound 160]	< 2
OCCNCc1ccc2cc(-c3ccc(Cl)cc3)oc2c1 [compound 74]	> 2
CC(C)(C)OC(=O)N1CC(OCCNCc2ccc3cc(CCc4ccc(F)cc4)oc3c2)C1 [compound 158]	> 2
CC(C)(C)OC(=O)N1CCN(CCOCCNCc2ccc3cc(CCc4ccc(F)cc4)oc3c2)CC1 [compound 147]	> 2
CC(C)(C)OC(=O)N1CC(COCCNCc2ccc3cc(CCc4ccc(F)cc4)oc3c2)C1 [compound 155]	> 2
COC(=O)CCOCCNCC(O)COc1ccc2cc(Cc3ccccc3)oc2c1 (stereo not drawn) [compound 99]	< 2
CC(C)(C)OC(=O)N1CCC(COCCNCc2ccc3cc(CCc4ccc(F)cc4)oc3c2)CC1 [compound 123]	> 2
CNCCOCCOCCOCCNCc1ccc2cc(CCc3ccc(F)cc3)oc2c1 [compound 87]	> 2
CC(C)(C)OC(=O)N1CCC(OCCNCc2ccc3cc(CCc4ccc(F)cc4)oc3c2)C1 (stereo not drawn) [compound 157]	> 2
COC(=O)c1cccc(COCCNCc2ccc3cc(CCc4ccc(F)cc4)oc3c2)c1 [compound 135]	< 2
CC(C)(C)OC(=O)NCCCCCCCCOCCNCc1ccc2cc(CCc3ccc(F)cc3)oc2c1 [compound 149]	> 2
CC(C)(C)OC(=O)CCCCOCCNCc1ccc2cc(CCc3ccc(F)cc3)oc2c1 [compound 137]	< 2
C#CCCCCCCOCCNCc1ccc2cc(CCc3ccc(F)cc3)oc2c1 [compound 141]	> 2
OCCNCc1ccc2cc(-c3cccc(Cl)c3)oc2c1 [compound 73]	> 2
CO[C@H]1CCCN(Cc2ccc3cc(-c4ccccc4)oc3c2)C1 [compound 110]	< 2
CC(C)NCC(O)COc1ccc2cc(CCc3ccc(F)cc3)oc2c1 (stereo not drawn) [compound 80]	> 2
Fc1ccc(CCc2cc3ccc(CNCCOCCCCl)cc3o2)cc1 [compound 136]	> 2
CC(C)NCCOCc1ccc2cc(-c3ccccc3)oc2c1 [compound 77]	> 2

SMILES	fold induction at 5 µM
C#CCOCCOCCOCCNCc1ccc2cc(CCc3ccc(F)cc3)oc2c1 [compound 126]	> 2
CNCCCOCCOCCNCc1ccc2cc(-c3ccccc3)oc2c1 [compound 120]	> 2
CC(C)(C)OC(=O)NC1CCN(CCOCCNCc2ccc3cc(CCc4ccc(F)cc4)oc3c2)CC1 [compound 166]	> 2
CC(C)(C)OC(=O)COCCNCc1ccc2cc(CCc3ccc(F)cc3)oc2c1 [compound 131]	> 2
CC(C)(C)OC(=O)NCCCOCCNCc1ccc2cc(CCc3ccc(F)cc3)oc2c1 [compound 154]	> 2
CCOC(=O)C1CCN(C(=O)COCCNCc2ccc3cc(CCc4ccc(F)cc4)oc3c2)CC1 [compound 142]	> 2
C#CCCOCCOCCOCCNCc1ccc2cc(Cc3ccc(Cl)cc3)oc2c1 [compound 96]	> 2
CC(C)(C)OC(=O)CCOCCOCCNCc1ccc2cc(CCc3ccc(F)cc3)oc2c1 [compound 127]	> 2
CC(C)(C)OC(=O)Nc1cccc(COCCNCc2ccc3cc(CCc4ccc(F)cc4)oc3c2)c1 [compound 153]	> 2
CC(C)NCC(O)COc1ccc2cc(-c3ccccc3)oc2c1 (stereo not drawn) [compound 78]	> 2
CNC(=O)CCOCCOCCNCc1ccc2cc(-c3ccccc3)oc2c1 [compound 121]	< 2
C#CCCOCCOCCNCC(O)COc1ccc2cc(Cc3ccccc3)oc2c1 (stereo not drawn) [compound 98, 1-((2-benzylbenzofuran-6-yl)oxy)-3-((2-(2-(but-3-yn-1-yloxy)ethoxy)ethyl)amino)propan-2-ol]	> 2
CC(C)(C)OC(=O)CCCCCCCCOCCNCc1ccc2cc(CCc3ccc(F)cc3)oc2c1 [compound 139]	< 2
CC(C)(C)OC(=O)Nc1ccc(COCCNCc2ccc3cc(CCc4ccc(F)cc4)oc3c2)cc1 [compound 151]	> 2
OCCNCc1ccc2nc(-c3ccccc3)oc2c1 [compound 106]	> 2
C#CCCOCCOCCOCCNCc1ccc2cc(CCc3ccc(F)cc3)oc2c1 [compound 84]	> 2
C#CCCOCCOCCNCc1ccc2cc(CCc3ccc(F)cc3)oc2c1 [compound 83, 2-(2-(but-3-yn-1-yloxy)ethoxy)-N-((2-(4-fluorophenethyl)benzofuran-6-yl)methyl)ethan-1-amine]	> 2
CC(C)(C)OC(=O)CCCOCCNCc1ccc2cc(CCc3ccc(F)cc3)oc2c1 [compound 145]	< 2
CNCCOCCOCCNCc1ccc2cc(CCc3ccc(F)cc3)oc2c1 [compound 86]	> 2
CC(C)(C)OC(=O)CCCCCOCCNCc1ccc2cc(CCc3ccc(F)cc3)oc2c1 [compound 140]	< 2
COC(=O)C1(COCCNCc2ccc3cc(CCc4ccc(F)cc4)oc3c2)COC1 [compound 146]	< 2
C#CCOCCOCCNCc1ccc2cc(CCc3ccc(F)cc3)oc2c1 [compound 129]	> 2

SMILES	fold induction at 5 µM
CC(C)(C)OC(=O)NCCOCCNCc1ccc2cc(CCc3ccc(F)cc3)oc2c1 [compound 122]	> 2
CC(C)(C)OC(=O)NCCCCCOCCNCc1ccc2cc(CCc3ccc(F)cc3)oc2c1 [compound 148]	< 2
COC1CC(NCc2ccc3cc(-c4ccccc4)oc3c2)C1 (stereo not drawn) [compound 107]	< 2
COc1ccc(-c2cc3ccc(CNCCO)cc3o2)cc1 [compound 76]	> 2
COC1CN(Cc2ccc3cc(-c4cccnc4)oc3c2)C1 [compound 112]	< 2
C#CCCCCCOCCNCc1ccc2cc(CCc3ccc(F)cc3)oc2c1 [compound 138]	> 2
COC(=O)c1ccc(OCCOCCNCc2ccc3cc(CCc4ccc(F)cc4)oc3c2)cc1 [compound 159]	> 2
CC(C)(C)OC(=O)NCCOCCOCCOCCNCc1ccc2cc(Cc3ccccc3)oc2c1 [compound 82, tert-butyl (1-(2-benzylbenzofuran-6-yl)-5,8,11-trioxa-2-azatridecan-13-yl)carbamate]	< 2
COC(=O)c1ccc(N2CCC(COCCNCc3ccc4cc(CCc5ccc(F)cc5)oc4c3)CC2)cc1 [compound 162]	> 2
CC(C)(C)OC(=O)N1CCC(CCOCCNCc2ccc3cc(CCc4ccc(F)cc4)oc3c2)CC1 [compound 152]	> 2
OCCNCc1ccc2cc(CN3CCCCC3)oc2c1 [compound 25]	< 2
COC(=O)CCOCCOCCNCc1ccc2cc(-c3ccccc3)oc2c1 [compound 95, methyl 3-(2-(2-(((2-phenylbenzofuran-6-yl)methyl)amino)ethoxy)ethoxy)propanoate]	> 2
CC(C)(C)OC(=O)c1ccc(COCCNCc2ccc3cc(CCc4ccc(F)cc4)oc3c2)cc1 [compound 134]	> 2
COCCNCc1ccc2cc(-c3ccccc3)oc2c1 [compound 105]	> 2
CC(C)(C)OC(=O)NCCOCCOCCNCc1ccc2cc(CCc3ccc(F)cc3)oc2c1 [compound 124]	> 2
OCCNCc1ccc2nc(-c3ccccc3)sc2c1 [compound 113]	> 2
C#Cc1ccc(COCCNCc2ccc3cc(CCc4ccc(F)cc4)oc3c2)cc1 [compound 164]	> 2
OCCNCc1ccc2cc(-c3ccccc3Cl)oc2c1 [compound 72]	> 2
CC(C)(C)OC(=O)CCOCCNCc1ccc2cc(CCc3ccc(F)cc3)oc2c1 [compound 132]	> 2
COC1CN(Cc2ccc3cc(-c4ccccc4)oc3c2)C1 [compound 108]	> 2
CC(C)(C)OC(=O)N1CCC(OCCOCCNCc2ccc3cc(CCc4ccc(F)cc4)oc3c2)CC1 [compound 90]	> 2
CC(C)(C)OC(=O)NCC1CC(COCCNCc2ccc3cc(CCc4ccc(F)cc4)oc3c2)C1 (stereo not drawn) [compound 163]	> 2
